Results from US8642613B2, “Treatment for leukemia and idiopathic aplastic anemia” (Sphingomonas Research Partners, L.P., priority 2008, dated 2014).

System: acute lymphocytic leukemia (ALL), Philadelphia chromosome positive, with bone marrow failure
Assay: Rifampicin treatment of a single patient with relapsed acute lymphocytic leukemia and end stage bone marrow failure
Type: in vivo, human
Description: The single leukemia patient studied, and reported here, was a person who presented with acute lymphocytic leukemia (ALL), Philadelphia chromosome positive, who was converted to remission with a stem cell transplant from a matching sibling. Within one year, the leukemia reverted to an active form, and they were treated with all anti-leukemic agents known, and these included several experimental agents from MD Anderson Hospital in Houston.
They developed diabetes associated with steroids, and right maxillary sinus infection with a species of Mucorales. They underwent debridement of their sinus, with removal of bone and tissue up to the floor of the […] orbit. The sense of smell had been lost during the mucor infection. Their condition worsened in the Houston hospital. They developed bone marrow failure, and was transferred by air ambulance in a bed to their home in the Chicago area with instructions for terminal hospice care. They were bedridden, unable to sit up, and appeared moribund.
The laboratory findings at that time included:
The present inventor, who is a physician, is a cousin of the patient. After informed consent, which included a description of the experience of the inventor, the patient was started on rifampicin (rifampin) 600 mg daily not within 2½ hours of meals. This treatment was not part of any protocol, but was a private request to the inventor.

[1] = single ALL patient, rifampicin 600 mg daily
[2] = single ALL patient, rifampicin 600 mg daily, time after start of treatment

Rifampicin
white cell levels (mature leukocytes and lymphocytes) (approximately 5 weeks after treatment began, rifampicin 600 mg daily): continued at normal levels
platelet counts over time (FIG. 3) (patient presenting with acute lymphocytic leukemia treated with rifampicin): increase in platelet counts over time
white cell counts over time (FIG. 4) (same patient and time course as FIG. 3): increase in white cell counts
clinical condition (strength, sitting, standing, short walks) [1]: marked clinical improvement
platelet drop leading to temporary discontinuation (suspected platelet agglutination) [1]: transient drop in platelets
time until patient began to show bone marrow recovery [2]: ≤ 2 weeks
time until significant parameters of bone marrow remission had developed [2]: ≤ 6 weeks
platelets, level reached on treatment (single ALL patient, rifampicin 600 mg daily, 11K before treatment): 48 K
